Results from the NIST ThermoML archive (doi:10.1021/je8000975).
Values joined by “and” are separate entries in the source; they are usually repeats but may differ in a detail not shown here. Equal values may be shown once.

Columns and labels:
[1] = Liquid; for speed of sound: Sing-around technique in a fixed-path interferometer
[2] = xn = mol fraction of the nth substance listed; settings: 101 kPa, Liquid

CCOCCO [2-ethoxyethan-1-ol]
[1]
Settings	mass density [kg/m3]	speed of sound [m/s]
293.15 K	929.545	1319.9
298.15 K	925.027	1301.7
303.15 K	920.457	1284.2

CCOCCO [2-ethoxyethan-1-ol] + COCCO
[2]
Settings	mass density [kg/m3]
293.15 K, x2 = 0.1511	933.958
293.15 K, x2 = 0.2029	935.531
293.15 K, x2 = 0.3043	938.709
293.15 K, x2 = 0.3503	940.193
293.15 K, x2 = 0.5024	945.313
293.15 K, x2 = 0.5514	947.031
293.15 K, x2 = 0.6992	952.448
293.15 K, x2 = 0.7482	954.326
293.15 K, x2 = 0.798	956.272
293.15 K, x2 = 0.7992	956.321
293.15 K, x2 = 0.8504	958.373
293.15 K, x2 = 0.8997	960.393
293.15 K, x2 = 0.9488	962.456
298.15 K, x2 = 0.0536	926.563
298.15 K, x2 = 0.1039	928.032
298.15 K, x2 = 0.151	929.431
298.15 K, x2 = 0.1517	929.455
298.15 K, x2 = 0.3523	935.724
298.15 K, x2 = 0.3757	936.488
298.15 K, x2 = 0.4166	937.846
298.15 K, x2 = 0.4509	939.002
298.15 K, x2 = 0.5507	942.46
298.15 K, x2 = 0.5981	944.155
298.15 K, x2 = 0.7494	949.818
298.15 K, x2 = 0.7987	951.747
298.15 K, x2 = 0.8423	953.488
298.15 K, x2 = 0.8475	953.698
298.15 K, x2 = 0.9002	955.855
298.15 K, x2 = 0.9483	957.869
303.15 K, x2 = 0.1537	924.945
303.15 K, x2 = 0.1543	924.961
303.15 K, x2 = 0.2017	926.398
303.15 K, x2 = 0.2495	927.868
303.15 K, x2 = 0.3013	929.498
303.15 K, x2 = 0.402	932.768
303.15 K, x2 = 0.4505	934.39
303.15 K, x2 = 0.4985	936.037
303.15 K, x2 = 0.5505	937.856
303.15 K, x2 = 0.5979	939.553
303.15 K, x2 = 0.6504	941.473
303.15 K, x2 = 0.6979	943.248
303.15 K, x2 = 0.7488	945.193
303.15 K, x2 = 0.7998	947.188
303.15 K, x2 = 0.9001	951.244

COCCO [2-methoxyethan-1-ol]
[1]
Settings	mass density [kg/m3]	speed of sound [m/s]
293.15 K	964.656	1359.2
298.15 K	960.088	1341.6
303.15 K	955.471	1324.3

CCCOCCO [2-propoxyethanol]
[1]
Settings	mass density [kg/m3]	speed of sound [m/s]
293.15 K	911.515	1316.6
298.15 K	907.151	1298.6
303.15 K	902.736	1281.1

CCCOCCO [2-propoxyethanol] + CCCCOCCCC
[2]
Settings	mass density
293.15 K, x1 = 0.0625	774.485 kg/m3
293.15 K, x1 = 0.1231	780.612 kg/m3
293.15 K, x1 = 0.1827	786.927 kg/m3
293.15 K, x1 = 0.2394	793.199 kg/m3
293.15 K, x1 = 0.2492	794.319 kg/m3
293.15 K, x1 = 0.2944	799.55 kg/m3
293.15 K, x1 = 0.2949	799.613 kg/m3
293.15 K, x1 = 0.3486	806.069 kg/m3
293.15 K, x1 = 0.4023	812.805 kg/m3
293.15 K, x1 = 0.4544	819.603 kg/m3
293.15 K, x1 = 0.4567	819.921 kg/m3
293.15 K, x1 = 0.5556	833.65 kg/m3
293.15 K, x1 = 0.599	840.02 kg/m3
293.15 K, x1 = 0.6019	840.448 kg/m3
293.15 K, x1 = 0.6498	847.778 kg/m3
293.15 K, x1 = 0.6536	848.363 kg/m3
293.15 K, x1 = 0.7431	862.909 kg/m3
293.15 K, x1 = 0.8304	878.188 kg/m3
293.15 K, x1 = 0.8329	878.643 kg/m3
293.15 K, x1 = 0.875	886.46 kg/m3
293.15 K, x1 = 0.9173	894.637 kg/m3
293.15 K, x1 = 0.9567	902.506 kg/m3
293.15 K, x1 = 0.9568	902.528 kg/m3
298.15 K, x1 = 0.0551	769.407 kg/m3
298.15 K, x1 = 0.0626	770.132 kg/m3
298.15 K, x1 = 0.1039	774.248 kg/m3
298.15 K, x1 = 0.1246	776.381 kg/m3
298.15 K, x1 = 0.1556	779.622 kg/m3
298.15 K, x1 = 0.2367	788.484 kg/m3
298.15 K, x1 = 0.2393	788.779 kg/m3
298.15 K, x1 = 0.2922	794.872 kg/m3
298.15 K, x1 = 0.3545	802.367 kg/m3
298.15 K, x1 = 0.4014	808.252 kg/m3
298.15 K, x1 = 0.4031	808.491 kg/m3
298.15 K, x1 = 0.455	815.247 kg/m3
298.15 K, x1 = 0.5006	821.438 kg/m3
298.15 K, x1 = 0.5043	821.944 kg/m3
298.15 K, x1 = 0.5521	828.692 kg/m3
298.15 K, x1 = 0.6483	843.112 kg/m3
298.15 K, x1 = 0.6976	850.944 kg/m3
298.15 K, x1 = 0.6984	851.074 kg/m3
298.15 K, x1 = 0.6993	851.218 kg/m3
298.15 K, x1 = 0.7502	859.679 kg/m3
298.15 K, x1 = 0.7902	866.584 kg/m3
298.15 K, x1 = 0.8325	874.153 kg/m3 and 874.166 kg/m3
298.15 K, x1 = 0.9152	889.815 kg/m3
298.15 K, x1 = 0.9163	890.027 kg/m3
298.15 K, x1 = 0.9571	898.214 kg/m3
298.15 K, x1 = 0.9581	898.407 kg/m3
303.15 K, x1 = 0.0645	765.959 kg/m3
303.15 K, x1 = 0.1249	772.015 kg/m3
303.15 K, x1 = 0.1826	778.083 kg/m3
303.15 K, x1 = 0.2383	784.22 kg/m3 and 784.216 kg/m3
303.15 K, x1 = 0.3481	797.121 kg/m3
303.15 K, x1 = 0.4032	804.021 kg/m3
303.15 K, x1 = 0.4542	810.67 kg/m3
303.15 K, x1 = 0.4567	810.994 kg/m3
303.15 K, x1 = 0.5058	817.67 kg/m3
303.15 K, x1 = 0.5547	824.595 kg/m3
303.15 K, x1 = 0.5548	824.612 kg/m3
303.15 K, x1 = 0.5997	831.213 kg/m3
303.15 K, x1 = 0.6542	839.567 kg/m3
303.15 K, x1 = 0.6988	846.673 kg/m3
303.15 K, x1 = 0.7434	854.06 kg/m3
303.15 K, x1 = 0.7899	862.072 kg/m3
303.15 K, x1 = 0.8319	869.613 kg/m3
303.15 K, x1 = 0.8764	877.879 kg/m3
303.15 K, x1 = 0.9168	885.687 kg/m3 and 885.692 kg/m3
303.15 K, x1 = 0.9553	893.42 kg/m3
303.15 K, x1 = 0.9575	893.858 kg/m3
